This passage reports IC50 results from US11033537B2, “LPT-723 and immune checkpoint inhibitor combinations and methods of treatment” (BIOMED VALLEY DISCOVERIES, INC., priority 2015, dated 2021).

Holding throughout (format): cell-based, murine
One assay has as its system A20 cells. The assay is described as follows: In vitro cell viability assay, A20.
For the next assay, the system named is MBT-2 cells. The assay is described as follows: In vitro cell viability assay, MBT-2.
Another assay relates to Pan02 cells. The experiment in a line: In vitro cell viability assay (CellTiter-Glo), Pan02. From the text:
No significant changes in body weights were noted.
Background: In ATP-based viability assays light output follows the ATP content of the culture.

What is called IC50 is the concentration that gives 50% inhibition. Low readings indicate greater potency, high ones weaker potency. With `N.N.[Cl][Pt][Cl]` [Cisplatin, reference compound], the IC50 with A20 cells was determined as 1070 nM; with MBT-2 cells it was 6870 nM; in the assay on Pan02 cells it was 1090 nM.
